We go through one compound from publication PMC7016953 (Cells, 2020).

The assay has as its system T1, mTRPC5-YFP.
T1 construct: expressed in transfected cells
Briefly: Selectivity profiling, fluo-4 [Ca2+]i response, TRPC5. In kind it is cell-based, mouse. To be noted: 100 µM. Here is the method: Human embryonic kidney 293 (HEK293) cells were stably transfected with expression plasmids that encode hTRPC3-YFP, hTRPC6-YFP, hTRPC7-YFP, mTRPC4ß-YFP, rTRPV1-CFP, rTRPV2-YFP, rTRPV3-YFP, mTRPV4-YFP, or hTRPM2 as previously described. Cell lines were cultured in Earle’s minimum essential medium (MEM; Sigma, Munich, Germany), supplemented with 10% fetal calf serum (Gibco Thermo Fisher Scientific, Darmstadt, Germany), 2 mM L-glutamine, and required concentrations of geneticin in a range of 0.4–1 mg/mL. A HEK293mTRPC5-YFP cell line was maintained and induced as described before. […] For electrophysiological and single cell [Ca^2+]i imaging experiments, PC12 cells were plated onto 25 mm poly-L-lysine-coated glass coverslips and measured 24–48 h after seeding. […]
The primary compound screen and the generation of concentration response curves in HEK293 cells or in PC12 cells were performed by using a custom-made fluorescence plate imager built into a robotic liquid handling station equipped with a 96-tip multichannel head (Freedom Evo 150, Tecan, Männedorf, Switzerland) as described previously. […] Plates were mounted on the imager, and fluorescence signals were recorded with a cooled Zyla 5.5 camera (Andor, Belfast, UK) through a 515 nm long pass filter. […] When inhibitory potencies were evaluated, a second pipetting step with the respective reference agonist was performed. […]

Take `C[C@@H]1CC[C@H]2[C@@H](C)C(=O)O[C@@H]3O[C@@]4(C)CC[C@@H]1[C@]32OO4` [artemisinin]: the “[Ca2+]i response, TRPC5” value is “none of the cell lines responded”.
